Measurements reported in US8686190B2, “Bis-aromatic anticancer agents” (The UAB Research Foundation, priority 2008, dated 2014).

Experiments:
PC-3 = assay: Cytotoxicity screening, PC-3 cells; type: cell-based; details: Homo sapiens; for inhibition at 10 µM: treatment at 10 μM, 24 h treatment then 96 h incubation, read-out: Inhibition: percent cell death normalized against controls; for IC50: read-out: IC50, drug dose to inhibit 50% cell proliferation
Description: (§1) Tumor cells were maintained as monolayers in 75-cm^2 tissue culture flasks using their respective cell culture medium containing 10% fetal bovine serum and 2 mM L-glutamine. The cells were incubated at 37° C. under a humidified 5% CO2: air atmosphere (standard conditions) for five days. The cells were harvested when in mid-log growth and their concentration was determined using a particle counter (Beckman Coulter, Inc, Fullerton, Calif.). An aliquot of the cell suspension was diluted in culture medium for delivery to a 24-well tissue culture plate at a range of 10,000 to 30,000 per 1 mL per well. After 24 h, quadruplicate wells were inoculated with either vehicle (untreated controls) or test compounds at various concentrations. After 24 h of incubation, the wells were aspirated, washed once with 1 mL PBS, and refilled with 1 mL treatment-free medium. Following a 96-h incubation under the initial treatment conditions, the viable cells were counted and the numbers were normalized to the percent of untreated controls. The extent of cytotoxicity in treated wells as compared to the controls and the dose that inhibits 50% cell proliferation (IC50) was calculated.

LS174-T = assay: Cytotoxicity screening, LS174-T cells; type: cell-based; details: Homo sapiens, LS174T; for IC50: read-out: IC50, drug dose to inhibit 50% cell proliferation; for inhibition at 10 µM: treatment at 10 μM, 24 h treatment then 96 h incubation
Description: as §1

MIA PaCa-2 = assay: Cytotoxicity screening, MIA PaCa-2 cells; type: cell-based; details: Homo sapiens; for IC50: read-out: IC50, drug dose to inhibit 50% cell proliferation; for inhibition at 10 µM: treatment at 10 μM, 24 h treatment then 96 h incubation
Description: as §1

Panc-1 = assay: Cytotoxicity screening, Panc-1 cells; type: cell-based; details: Homo sapiens; for inhibition at 10 µM: Panc-1, treatment at 10 μM, 24 h treatment then 96 h incubation, read-out: Inhibition: percent cell death normalized against controls
Description: as §1

[1] = test system: LS174-T human colon carcinoma tumors; assay: Evaluation of antitumor activity, nude mouse model of LS174-T tumors; type: in vivo; details: female nude mice, sc LS174-T tumors, iv qdx5; untreated control 15 days; n=8, p=0.043
Description: Antitumor activity of compound II-e was evaluated using a nude mouse model of Ls174-T human colon cancer tumors. Female nude mice were implanted subcutaneously (sc) with LS174-T human colon carcinoma cells (10^7 cells/mouse). When tumors reached a cross diameter of 7 mm, the mice were randomized into 2×8 groups and were injected iv with either the vehicle (5% dextrose solution containing 20% 50:50, Cremophore EL: ethanol)) or a solution II-e in the same solvent system. The protocol used was qdx5 injections every 24 h. Tumor volumes were monitored by caliper measurement 3× weekly (see FIG. 1 wherein circles correspond to inactivated compound IIe; triangles correspond to vehicle; and squares correspond to compound II-e).

[2] = measured at 7.5 μM, read-out: Inhibition: percent cell death normalized against controls
[3] = read-out: Inhibition: percent cell death normalized against controls

SMILES | inhibition at 10 µM (PC-3) [%] | IC50 (LS174-T) [µM] | IC50 (MIA PaCa-2) [µM] | IC50 (PC-3) [µM] | inhibition at 7.5 µM (LS174-T; [2]) [%] | inhibition at 10 µM (LS174-T; [3]) [%] | inhibition at 7.5 µM (MIA PaCa-2; [2]) [%] | inhibition at 10 µM (MIA PaCa-2; [3]) [%] | IC50 (Panc-1; PANC-1, read-out: IC50, drug dose to inhibit 50% cell proliferation) [µM] | inhibition at 10 µM (Panc-1) [%] | Tumor doubling time [1] [days]
OC(CSCC(O)c1ccccc1)c1ccccc1 (stereo not shown) [II-a] | 5 ± 9 | – | – | – | – | – | – | – | – | – | –
COc1cc(/C=C/C(=O)CC(=O)/C=C/c2ccc(O)c(OC)c2)ccc1O [curcumin, reference compound] | – | 6.5 | 9 | 12 | – | – | – | – | – | – | –
OC(CSCC(O)c1cc(C(F)(F)F)cc(C(F)(F)F)c1)c1cc(C(F)(F)F)cc(C(F)(F)F)c1 (stereo not shown) [II-e] | 78 ± 4 | 3.6 | 3.7 | 4.4 | 96 ± 1 | 96 | 94 ± 2 | 94 ± 2 | 6.3 | 80 ± 4 | 30
OC(CSCC(O)c1ccc(C(F)(F)F)cc1)c1ccc(C(F)(F)F)cc1 (stereo not shown) [II-d] | 43 ± 4 | – | – | – | – | 33 ± 6 | – | 11 ± 4 | – | 27 ± 5 | –
CC(=O)C(CSCC(C(C)=O)c1cc(C(F)(F)F)cc(C(F)(F)F)c1)c1cc(C(F)(F)F)cc(C(F)(F)F)c1 (stereo not shown) [II-e bis-OAc, 4,4′-thiobis(3-(3,5-bis(trifluoromethyl)phenyl)butan-2-one)] | – | – | – | – | – | – | – | 29 ± 6 | – | – | –
OC(CSCC(O)c1ccc(OC(F)(F)F)cc1)c1ccc(OC(F)(F)F)cc1 (stereo not shown) [II-c] | 40 ± 7 | – | – | – | – | 13 ± 7 | – | 34 ± 14 | – | 43 ± 9 | –
COc1cccc(C(O)CSCC(O)c2cccc(OC)c2OC)c1OC (stereo not shown) [II-b] | 8 ± 4 | – | – | – | – | 0 | – | 0 | – | 0 | –
